Results from article PMC3234597, “Two Panels of Steroid Receptor Luciferase Reporter Cell Lines for Compound Profiling” (Combinatorial Chemistry & High Throughput Screening, 2011).
“Also recorded” adds a separate entry of the source.

Legend:
Assay type in all cases: cell-based
human GR (full-length) [1] = target: T1, human GR (full-length) (Homo sapiens, UniProt P04150); assay: U2OS-GR/3xGRE luciferase reporter cell line (full-length receptor)
T1 construct: expression vectors encoding full-length steroid receptors: pcDNA3-hAR and pcDNA3-hGR; host or cells: U2OS
T1 sequence (P04150 1-777): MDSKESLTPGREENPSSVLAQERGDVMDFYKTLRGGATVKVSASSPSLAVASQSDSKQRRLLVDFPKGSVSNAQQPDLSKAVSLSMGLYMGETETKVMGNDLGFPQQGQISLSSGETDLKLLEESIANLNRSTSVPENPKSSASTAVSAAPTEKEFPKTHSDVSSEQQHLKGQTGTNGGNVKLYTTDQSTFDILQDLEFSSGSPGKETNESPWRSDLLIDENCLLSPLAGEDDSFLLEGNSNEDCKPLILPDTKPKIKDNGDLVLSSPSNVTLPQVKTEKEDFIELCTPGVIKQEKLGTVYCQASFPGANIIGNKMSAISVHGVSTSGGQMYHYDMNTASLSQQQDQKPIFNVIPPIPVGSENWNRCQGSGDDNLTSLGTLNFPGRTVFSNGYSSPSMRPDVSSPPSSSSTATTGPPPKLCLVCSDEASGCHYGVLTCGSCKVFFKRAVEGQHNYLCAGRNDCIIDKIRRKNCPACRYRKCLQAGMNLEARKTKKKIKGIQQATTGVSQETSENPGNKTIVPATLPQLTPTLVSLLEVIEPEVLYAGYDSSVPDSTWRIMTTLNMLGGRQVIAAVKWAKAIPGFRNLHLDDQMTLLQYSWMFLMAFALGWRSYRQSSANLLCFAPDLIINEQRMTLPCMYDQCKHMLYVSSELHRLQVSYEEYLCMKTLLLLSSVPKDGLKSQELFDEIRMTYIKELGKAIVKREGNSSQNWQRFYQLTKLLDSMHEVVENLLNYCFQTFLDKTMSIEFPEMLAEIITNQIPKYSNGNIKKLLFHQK

MR-LBD fused to Gal4-DBD = target: T2, MR-LBD fused to Gal4-DBD (Homo sapiens, UniProt P08235); assay: U2OS-MR-LBD/9xGal4UAS luciferase reporter cell line; conditions: for activity profile in words: MR-LBD expressing reporter cell line, agonist and antagonist mode; for EC50: read-out: Log EC50 (converted)
T2 construct: MR-LBD was cloned by RT-PCR from total RNA isolated from HEK293 cells; expressed in transfected cells; host or cells: U2OS
T2 sequence (P08235 726-964 limits assumed): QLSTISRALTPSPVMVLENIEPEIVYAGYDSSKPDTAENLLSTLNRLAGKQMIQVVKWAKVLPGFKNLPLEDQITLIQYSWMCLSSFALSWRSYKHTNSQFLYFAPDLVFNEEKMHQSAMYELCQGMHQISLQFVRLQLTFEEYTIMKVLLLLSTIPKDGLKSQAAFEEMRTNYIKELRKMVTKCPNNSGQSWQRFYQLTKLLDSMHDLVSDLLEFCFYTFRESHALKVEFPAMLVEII

human GR (full-length) [2] = target: T1, human GR (full-length); assay: U2OS-GR/MMTV luciferase reporter cell line (full-length receptor)
human MR (full-length) = target: T3, human MR (full-length) (Homo sapiens, UniProt P08235); assay: U2OS-MR/MMTV luciferase reporter cell line (full-length receptor); conditions: for activity profile in words: full-length MR format; for EC50: read-out: Log EC50 (converted)
T3 construct: expression vectors encoding full-length steroid receptors: pcDNA3-hAR, pcDNA3-hGR and pcDNA3-hMR; expressed in transfected cells; host or cells: U2OS
T3 sequence (P08235 1-984): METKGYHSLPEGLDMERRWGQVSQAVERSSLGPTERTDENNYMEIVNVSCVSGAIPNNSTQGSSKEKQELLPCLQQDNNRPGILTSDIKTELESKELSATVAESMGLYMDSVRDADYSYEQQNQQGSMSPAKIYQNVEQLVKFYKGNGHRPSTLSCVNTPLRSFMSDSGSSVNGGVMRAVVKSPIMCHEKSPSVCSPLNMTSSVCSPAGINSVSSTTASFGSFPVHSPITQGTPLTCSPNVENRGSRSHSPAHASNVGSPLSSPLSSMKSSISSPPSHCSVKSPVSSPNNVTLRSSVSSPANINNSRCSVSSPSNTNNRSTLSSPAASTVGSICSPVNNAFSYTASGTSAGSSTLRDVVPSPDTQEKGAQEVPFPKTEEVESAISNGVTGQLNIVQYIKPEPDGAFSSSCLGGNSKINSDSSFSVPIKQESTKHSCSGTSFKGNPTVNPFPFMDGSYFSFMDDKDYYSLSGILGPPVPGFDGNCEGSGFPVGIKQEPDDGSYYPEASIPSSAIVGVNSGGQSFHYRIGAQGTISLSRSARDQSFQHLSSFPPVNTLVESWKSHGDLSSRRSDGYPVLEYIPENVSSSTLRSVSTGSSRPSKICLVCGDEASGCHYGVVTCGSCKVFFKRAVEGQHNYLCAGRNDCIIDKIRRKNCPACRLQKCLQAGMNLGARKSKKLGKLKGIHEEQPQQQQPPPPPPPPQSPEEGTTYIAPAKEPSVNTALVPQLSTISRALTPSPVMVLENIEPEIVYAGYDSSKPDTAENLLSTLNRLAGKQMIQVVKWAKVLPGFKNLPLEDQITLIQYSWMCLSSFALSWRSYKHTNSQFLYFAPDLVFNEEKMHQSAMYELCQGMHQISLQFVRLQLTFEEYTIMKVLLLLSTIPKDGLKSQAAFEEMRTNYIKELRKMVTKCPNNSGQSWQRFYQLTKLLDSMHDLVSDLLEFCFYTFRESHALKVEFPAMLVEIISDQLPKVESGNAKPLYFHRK

GR-LBD fused to Gal4-DBD = target: T4, GR-LBD fused to Gal4-DBD (Homo sapiens, UniProt P04150); assay: U2OS-GR-LBD/9xGal4UAS luciferase reporter cell line
T4 construct: expressed in transfected cells; host or cells: U2OS
T4 sequence (P04150 524-758 limits assumed): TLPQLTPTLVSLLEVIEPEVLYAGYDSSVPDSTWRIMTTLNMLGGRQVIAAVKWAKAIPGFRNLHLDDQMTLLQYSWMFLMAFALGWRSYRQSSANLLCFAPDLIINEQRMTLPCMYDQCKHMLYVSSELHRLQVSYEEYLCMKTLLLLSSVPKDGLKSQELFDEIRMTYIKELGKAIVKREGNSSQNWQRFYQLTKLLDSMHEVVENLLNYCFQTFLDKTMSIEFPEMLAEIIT

PR-LBD fused to Gal4-DBD = target: T5, PR-LBD fused to Gal4-DBD (Homo sapiens, UniProt P06401); assay: U2OS-PR-LBD/9xGal4UAS luciferase reporter cell line; conditions: for IC50: antagonist mode, PR-LBD/9xGal4UAS, log10 of molar IC50, mean ± SEM, read-out: Log IC50 (converted); for EC50: read-out: Log EC50 (converted)
T5 construct: PR-LBD region was PCR amplified using the following primer combination; host or cells: U2OS
T5 sequence (P06401 679-913 limits assumed): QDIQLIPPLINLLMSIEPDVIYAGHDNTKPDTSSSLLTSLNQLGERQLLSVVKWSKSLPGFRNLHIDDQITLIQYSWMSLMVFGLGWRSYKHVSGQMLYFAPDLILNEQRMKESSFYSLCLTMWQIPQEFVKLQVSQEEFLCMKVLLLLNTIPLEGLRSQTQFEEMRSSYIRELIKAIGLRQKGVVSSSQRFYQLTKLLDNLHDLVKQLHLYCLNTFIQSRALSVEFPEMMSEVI

human ERβ (full-length) = target: T6, human ERβ (full-length) (Homo sapiens, UniProt Q92731); assay: U2OS-ERβ/3xERE luciferase reporter cell line (full-length receptor); conditions: for EC50: read-out: Log EC50 (converted)
T6 construct: expression vectors encoding full-length steroid receptors: pcDNA3-hERα and pcDNA3-ERβ; expressed in transfected cells; host or cells: U2OS

[3] = target: T7, ERβ-LBD fused to Gal4-DBD (Homo sapiens, UniProt Q92731); assay: U2OS-ERβ-LBD/9xGal4UAS luciferase reporter cell line; conditions: read-out: Log EC50 (converted)
T7 construct: region comprising ERβ-LBD and a piece of the hinge region; expressed in transfected cells; host or cells: U2OS
T7 sequence (Q92731 264-498 limits assumed): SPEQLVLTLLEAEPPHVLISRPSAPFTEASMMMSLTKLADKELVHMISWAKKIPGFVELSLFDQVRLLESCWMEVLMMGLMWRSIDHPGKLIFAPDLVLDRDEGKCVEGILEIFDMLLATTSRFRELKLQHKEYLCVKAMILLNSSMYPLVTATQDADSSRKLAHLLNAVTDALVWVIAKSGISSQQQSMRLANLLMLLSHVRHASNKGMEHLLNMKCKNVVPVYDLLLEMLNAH

T6 sequence (Q92731 whole entry): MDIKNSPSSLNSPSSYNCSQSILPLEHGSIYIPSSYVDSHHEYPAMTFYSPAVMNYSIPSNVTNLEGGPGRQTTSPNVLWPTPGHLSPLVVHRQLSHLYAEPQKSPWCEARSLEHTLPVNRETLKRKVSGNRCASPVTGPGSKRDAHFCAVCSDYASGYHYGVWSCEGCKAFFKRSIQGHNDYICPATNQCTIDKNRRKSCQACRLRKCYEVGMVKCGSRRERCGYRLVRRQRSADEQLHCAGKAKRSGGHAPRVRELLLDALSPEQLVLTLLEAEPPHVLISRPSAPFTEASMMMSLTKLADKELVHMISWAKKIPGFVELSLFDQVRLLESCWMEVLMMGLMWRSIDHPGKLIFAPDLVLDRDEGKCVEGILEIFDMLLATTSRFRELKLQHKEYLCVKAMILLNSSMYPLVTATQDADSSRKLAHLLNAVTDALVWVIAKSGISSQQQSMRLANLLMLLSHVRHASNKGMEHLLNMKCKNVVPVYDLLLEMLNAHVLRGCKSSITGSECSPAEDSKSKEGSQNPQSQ

Compound	IC50 (PR-LBD fused to Gal4-DBD) [µM]	EC50 (PR-LBD fused to Gal4-DBD) [µM]	EC50 (human ERβ (full-length)) [µM]	EC50 [3] [µM]	activity profile in words (human MR (full-length); antagonist mode)	EC50 (MR-LBD fused to Gal4-DBD) [µM]	EC50 (human MR (full-length)) [µM]	activity profile in words (MR-LBD fused to Gal4-DBD)	other results
4-hydroxy-tamoxifen	–	–	–	–	–	–	–	–	Log EC50 (human GR (full-length) [1]; agonist mode, GR/3xGRE, 20 h, log10 of molar EC50, mean ± SEM): > -5.00 M; Log IC50 (human GR (full-length) [1]; antagonist mode, GR/3xGRE, in the presence of 5 nM dexamethasone, log10 of molar IC50, mean ± SEM): > -5.00 M; Log EC50 (MR-LBD fused to Gal4-DBD; agonist mode, MR-LBD/9xGal4UAS, 20 h, log10 of molar EC50, mean ± SEM): > -5.00 M; Log IC50 (MR-LBD fused to Gal4-DBD; antagonist mode, MR-LBD/9xGal4UAS, in the presence of 1 nM aldosterone, log10 of molar IC50, mean ± SEM): > -5.00 M; Log EC50 (human GR (full-length) [2]; agonist mode, GR/MMTV, 20 h, log10 of molar EC50, mean ± SEM): > -5.00 M; Log IC50 (human GR (full-length) [2]; antagonist mode, GR/MMTV, in the presence of 5 nM dexamethasone, log10 of molar IC50, mean ± SEM): > -5.00 M; Log EC50 (human MR (full-length); agonist mode, MR/MMTV, 20 h, log10 of molar EC50, mean ± SEM): > -5.00 M; Log IC50 (human MR (full-length); antagonist mode, MR/MMTV, in the presence of 1 nM aldosterone, log10 of molar IC50, mean ± SEM): > -5.00 M; Log EC50 (GR-LBD fused to Gal4-DBD; agonist mode, GR-LBD/9xGal4UAS, 20 h, log10 of molar EC50, mean ± SEM): > -5.00 M; Log IC50 (GR-LBD fused to Gal4-DBD; antagonist mode, GR-LBD/9xGal4UAS, in the presence of 5 nM dexamethasone, log10 of molar IC50, mean ± SEM): > -5.00 M
CC(=O)C1(O)CCC2C3CCC4=CC(=O)CCC4(C)C3CCC21C (stereo not drawn) [17α-hydroxyprogesterone]	> 10	> 10	> 10	> 10	–	–	–	–	EC50 (human GR (full-length) [1]; read-out: Log EC50 (converted)): > 10 µM; EC50 (human GR (full-length) [2]; read-out: Log EC50 (converted)): > 10 µM; EC50 (GR-LBD fused to Gal4-DBD; read-out: Log EC50 (converted)): > 10 µM
C[C@H]1C[C@H]2[C@@H]3CCC4=CC(=O)C=C[C@]4(C)[C@@]3(F)[C@@H](O)C[C@]2(C)[C@@]1(O)C(=O)CO [Betamethasone, betamethasone]	> 10	4.79	–	–	no sign of antagonistic activity	–	–	only weakly and partially activated; also recorded: pronounced full antagonist effect	–
CC(=O)O[C@]1(C(C)=O)CC[C@H]2[C@@H]3C=C(Cl)C4=CC(=O)[C@@H]5C[C@@H]5[C@]4(C)[C@H]3CC[C@@]21C [Cyproterone acetate, cyproterone acetate]	–	–	> 10	> 10	–	> 10	> 10	–	luciferase activity in ERβ reporter cell lines (human ERβ (full-length); ERβ reporter cell lines, even at 10 μM concentration): did not find any sign of luciferase activity

The next lines start with results.

IC50 (PR-LBD fused to Gal4-DBD) [µM]	EC50 (PR-LBD fused to Gal4-DBD) [µM]	EC50 (human ERβ (full-length)) [µM]	EC50 [3] [µM]	activity profile in words (human MR (full-length); antagonist mode)	EC50 (MR-LBD fused to Gal4-DBD) [µM]	EC50 (human MR (full-length)) [µM]	Compound	activity profile in words (MR-LBD fused to Gal4-DBD)	other results
–	–	–	–	–	> 10	> 10	CC/C(=C(/CC)c1ccc(O)cc1)c1ccc(O)cc1 [DES, Diethylstilbestrol]	–	–
> 10	4.79	–	–	no sign of antagonistic activity	–	–	C[C@@H]1C[C@H]2[C@@H]3CCC4=CC(=O)C=C[C@]4(C)[C@@]3(F)[C@@H](O)C[C@]2(C)[C@@]1(O)C(=O)CO [Dexamethasone, dexamethasone]	only weakly and partially activated; also recorded: pronounced full antagonist effect	–
